Converted amounts (≈) assume the structure as drawn. Non-standard residues stand in square brackets, D forms with d. Residues, ends and D or L forms follow the SMILES beside them. dDip = N[C@@H](C(=O)O)C(c1ccccc1)c1ccccc1; Dip = N[C@H](C(=O)O)C(c1ccccc1)c1ccccc1; 2Nal = N[C@@H](Cc1ccc2ccccc2c1)C(=O)O; d2Nal = N[C@H](Cc1ccc2ccccc2c1)C(=O)O
Legend:
[1] = tested on: Pseudomonas aeruginosa (ATCC 27883); details: ATCC 27883
in vitro = details: human, fresh human red blood cells (washed), pH 7.4
Method: Hemolytic Assay. We investigated the hemolytic effect (hemolytic assay) of the compounds on fresh human red blood cells to determine the cytotoxicity of the compounds. The hemolytic assay was conducted by serial dilution using 1% Triton X, 0.2% Triton X and PBS buffer pH 7.4 as controls. […] 3 mL of the fresh blood sample was washed severally by adding about 10 mL PBS buffer pH 7.4 and centrifuge at 4000 G until the supernatant was cleared. The washed blood sample was diluted to 20 mL volume to be used in the study. An aliquot of 190 μL blood sample was added to 10 μL compound sample in an Eppendorf tube and incubated for 30 min. After incubation, it was centrifuged at 4000 G for 5 min. 100 μL supernatant aliquot was diluted with 1 mL PBS buffer, and the absorbance was measured at 567 nm for the sample. % hemolysis is calculated as follows:
Where AX is the absorbance at various serial concentrations A0 absorbance of PBS buffer pH 7.4 AX absorbance of 0.2% Triton X control equivalent to 100%

[2] = tested on: Methicillin-resistant Staphylococcus aureus MRSA (ATCC BAA-1556); details: ATCC BAA-1556
S. aureus ATCC 29213 = details: ATCC 29213
[3] = tested on: Escherichia coli (ATCC 25922); details: ATCC 25922
human red blood cells = tested on: human red blood cells; parameters: unit not given beside the values

Row | Compound | MIC P. aeruginosa ATCC 27883 [1] [µg/mL] | HC50 at 0.5 h (in vitro) [µg/mL] | MIC MRSA ATCC BAA-1556 [2] [µg/mL] | MIC S. aureus ATCC 29213 (S. aureus ATCC 29213) [µg/mL] | MIC E. coli ATCC 25922 [3] [µg/mL] | HC50 (human red blood cells)
1 | N=C(N)NCCC[C@@H]1NC(=O)[C@H](C(c2ccccc2)c2ccccc2)NC(=O)[C@@H](C(c2ccccc2)c2ccccc2)NC(=O)[C@H](C(c2ccccc2)c2ccccc2)NC(=O)[C@@H](CCCNC(=N)N)NC(=O)[C@H](CCCNC(=N)N)NC(=O)[C@@H](CCCNC(=N)N)NC1=O [IFX-071, c[Arg-arg-Arg-arg-Dip-dip-Dip]] (cyclo(R[dR]R[dR][Dip][dDip][Dip])) | 12.5 (≈ 9.66 µM) | 150 |  |  |  | 
2 | N=C(N)NCCC[C@@H]1NC(=O)[C@@H](CCCNC(=N)N)NC(=O)[C@H](CCCNC(=N)N)NC(=O)[C@@H](CCCNC(=N)N)NC(=O)[C@@H](C(c2ccccc2)c2ccccc2)NC(=O)[C@H](C(c2ccccc2)c2ccccc2)NC(=O)[C@@H](C(c2ccccc2)c2ccccc2)NC1=O [IFX-069, c[arg-Arg-arg-Arg-dip-Dip-dip]] (cyclo([dR]R[dR]R[dDip][Dip][dDip])) | 6.2 (≈ 4.79 µM) | 200 |  |  |  | 
3 | N=C(N)NCCC[C@H]1NC(=O)[C@H](Cc2ccc3ccccc3c2)NC(=O)[C@H](Cc2ccc3ccccc3c2)NC(=O)[C@H](Cc2ccc3ccccc3c2)NC(=O)[C@@H](CCCNC(=N)N)NC(=O)[C@@H](CCCNC(=N)N)NC(=O)[C@@H](CCCNC(=N)N)NC1=O [IFX-087, c[arg-arg-arg-arg-NaI-NaI-NaI]] (cyclo([dR][dR][dR][dR][2Nal][2Nal][2Nal])) | 12.5 (≈ 10.3 µM) | 145 |  |  |  | 
4 | N=C(N)NCCC[C@@H]1NC(=O)[C@H](CCCNC(=N)N)NC(=O)[C@H](CCCNC(=N)N)NC(=O)[C@@H](C(c2ccccc2)c2ccccc2)NC(=O)[C@@H](C(c2ccccc2)c2ccccc2)NC(=O)[C@@H](C(c2ccccc2)c2ccccc2)NC(=O)[C@H](CCCNC(=N)N)NC1=O [IFX-072, c[Arg-Arg-Arg-Arg-dip-dip-dip]] (cyclo(RRRR[dDip][dDip][dDip])) | 12.5 (≈ 9.66 µM) | 265 |  |  |  | 
5 | N=C(N)NCCC[C@H]1NC(=O)[C@@H](CCCNC(=N)N)NC(=O)[C@@H](CCCNC(=N)N)NC(=O)[C@@H](Cc2ccc3ccccc3c2)NC(=O)[C@@H](Cc2ccc3ccccc3c2)NC(=O)[C@@H](Cc2ccc3ccccc3c2)NC(=O)[C@@H](CCCNC(=N)N)NC1=O [IFX-081, c[arg-arg-arg-arg-naI-naI-naI]] (cyclo([dR][dR][dR][dR][d2Nal][d2Nal][d2Nal])) | 50 (≈ 41.1 µM) | 200 |  |  |  | 
6 | N=C(N)NCCC[C@@H]1NC(=O)[C@H](CCCNC(=N)N)NC(=O)[C@H](CCCNC(=N)N)NC(=O)[C@@H](Cc2ccc3ccccc3c2)NC(=O)[C@@H](Cc2ccc3ccccc3c2)NC(=O)[C@@H](Cc2ccc3ccccc3c2)NC(=O)[C@H](CCCNC(=N)N)NC1=O [IFX-086, c[Arg-Arg-Arg-Arg-naI-naI-naI]] (cyclo(RRRR[d2Nal][d2Nal][d2Nal])) | 12.5 (≈ 10.3 µM) | 155 |  |  |  | 
7 | N=C(N)NCCC[C@@H]1NC(=O)[C@H](CCCNC(=N)N)NC(=O)[C@H](Cc2ccc3ccccc3c2)NC(=O)[C@H](Cc2ccc3ccccc3c2)NC(=O)[C@@H](Cc2ccc3ccccc3c2)NC(=O)[C@H](CCCNC(=N)N)NC(=O)[C@H](CCCNC(=N)N)NC1=O [IFX-076, c[Arg-Arg-Arg-Arg-naI-NaI-NaI]] (cyclo(RRRR[d2Nal][2Nal][2Nal])) | 12.5 (≈ 10.3 µM) | 100 |  |  |  | 
8 | N=C(N)NCCC[C@@H]1NC(=O)[C@H](Cc2ccc3ccccc3c2)NC(=O)[C@H](Cc2ccc3ccccc3c2)NC(=O)[C@H](Cc2ccc3ccccc3c2)NC(=O)[C@H](CCCNC(=N)N)NC(=O)[C@@H](CCCNC(=N)N)NC(=O)[C@H](CCCNC(=N)N)NC1=O [IFX-078, c[Arg-Arg-arg-Arg-NaI-NaI-NaI]] (cyclo(RR[dR]R[2Nal][2Nal][2Nal])) | 12.5 (≈ 10.3 µM) | 95 |  |  |  | 
9 | N=C(N)NCCC[C@@H]1NC(=O)[C@H](Cc2ccc3ccccc3c2)NC(=O)[C@@H](Cc2ccc3ccccc3c2)NC(=O)[C@H](Cc2ccc3ccccc3c2)NC(=O)[C@@H](CCCNC(=N)N)NC(=O)[C@H](CCCNC(=N)N)NC(=O)[C@@H](CCCNC(=N)N)NC1=O [IFX-085, c[Arg-arg-Arg-arg-NaI-naI-NaI]] (cyclo(R[dR]R[dR][2Nal][d2Nal][2Nal])) | 12.5 (≈ 10.3 µM) | 145 |  |  |  | 
10 | N=C(N)NCCC[C@@H]1NC(=O)[C@H](CCCNC(=N)N)NC(=O)[C@H](CCCNC(=N)N)NC(=O)[C@H](Cc2ccc3ccccc3c2)NC(=O)[C@@H](Cc2ccc3ccccc3c2)NC(=O)[C@H](Cc2ccc3ccccc3c2)NC(=O)[C@H](CCCNC(=N)N)NC1=O [IFX-075, c[Arg-Arg-Arg-Arg-NaI-naI-NaI]] (cyclo(RRRR[2Nal][d2Nal][2Nal])) | 12.5 (≈ 10.3 µM) | 100 |  |  |  | 
11 | N=C(N)NCCC[C@@H]1NC(=O)[C@H](CCCNC(=N)N)NC(=O)[C@H](CCCNC(=N)N)NC(=O)[C@@H](CCCNC(=N)N)NC(=O)[C@H](Cc2ccc3ccccc3c2)NC(=O)[C@H](Cc2ccc3ccccc3c2)NC(=O)[C@H](Cc2ccc3ccccc3c2)NC1=O [IFX-080, c[arg-Arg-Arg-Arg-NaI-NaI-NaI]] (cyclo([dR]RRR[2Nal][2Nal][2Nal])) | 12.5 (≈ 10.3 µM) | 200 |  |  |  | 
12 | N=C(N)NCCC[C@@H]1NC(=O)[C@H](CCCNC(=N)N)NC(=O)[C@@H](CCCNC(=N)N)NC(=O)[C@H](CCCNC(=N)N)NC(=O)[C@H](Cc2ccc3ccccc3c2)NC(=O)[C@H](Cc2ccc3ccccc3c2)NC(=O)[C@H](Cc2ccc3ccccc3c2)NC1=O [IFX-079, c[Arg-arg-Arg-Arg-NaI-NaI-NaI]] (cyclo(R[dR]RR[2Nal][2Nal][2Nal])) | 12.5 (≈ 10.3 µM) | 100 |  |  |  | 
13 | N=C(N)NCCC[C@@H]1NC(=O)[C@H](CCCNC(=N)N)NC(=O)[C@H](CCCNC(=N)N)NC(=O)[C@H](CCCNC(=N)N)NC(=O)[C@@H](Cc2ccc3ccccc3c2)NC(=O)[C@H](Cc2ccc3ccccc3c2)NC(=O)[C@H](Cc2ccc3ccccc3c2)NC1=O [IFX-074, c[Arg-Arg-Arg-Arg-NaI-NaI-naI]] (cyclo(RRRR[2Nal][2Nal][d2Nal])) | 12.5 (≈ 10.3 µM) | 200 |  |  |  | 
14 | N=C(N)NCCC[C@@H]1NC(=O)[C@H](Cc2ccc3ccccc3c2)NC(=O)[C@H](Cc2ccc3ccccc3c2)NC(=O)[C@H](Cc2ccc3ccccc3c2)NC(=O)[C@@H](CCCNC(=N)N)NC(=O)[C@H](CCCNC(=N)N)NC(=O)[C@H](CCCNC(=N)N)NC1=O [IFX-077, c[Arg-Arg-Arg-arg-NaI-NaI-NaI]] (cyclo(RRR[dR][2Nal][2Nal][2Nal])) | 12.5 (≈ 10.3 µM) | 100 |  |  |  | 
15 | N=C(N)NCCC[C@@H]1NC(=O)[C@@H](CCCNC(=N)N)NC(=O)[C@H](CCCNC(=N)N)NC(=O)[C@@H](CCCNC(=N)N)NC(=O)[C@@H](Cc2ccc3ccccc3c2)NC(=O)[C@@H](Cc2ccc3ccccc3c2)NC(=O)[C@@H](Cc2ccc3ccccc3c2)NC1=O [IFX-082, c[arg-Arg-arg-Arg-naI-naI-naI]] (cyclo([dR]R[dR]R[d2Nal][d2Nal][d2Nal])) | 12.5 (≈ 10.3 µM) | 150 |  |  |  | 
16 | N=C(N)NCCC[C@H]1NC(=O)[C@H](C(c2ccccc2)c2ccccc2)NC(=O)[C@H](C(c2ccccc2)c2ccccc2)NC(=O)[C@H](C(c2ccccc2)c2ccccc2)NC(=O)[C@@H](CCCNC(=N)N)NC(=O)[C@@H](CCCNC(=N)N)NC(=O)[C@@H](CCCNC(=N)N)NC1=O [IFX-073, c[arg-arg-arg-arg-Dip-Dip-Dip]] (cyclo([dR][dR][dR][dR][Dip][Dip][Dip])) | 6.2 (≈ 4.79 µM) | 245 |  |  |  | 
17 | N=C(N)NCCC[C@@H]1NC(=O)[C@@H](CCCNC(=N)N)NC(=O)[C@H](CCCNC(=N)N)NC(=O)[C@@H](CCCNC(=N)N)NC(=O)[C@@H](C(c2ccccc2)c2ccccc2)NC(=O)[C@@H](C(c2ccccc2)c2ccccc2)NC(=O)[C@@H](C(c2ccccc2)c2ccccc2)NC1=O [IFX-068, c[arg-Arg-arg-Arg-dip-dip-dip]] (cyclo([dR]R[dR]R[dDip][dDip][dDip])) | 12.5 (≈ 9.66 µM) | 280 |  |  |  | 
18 | N=C(N)NCCC[C@@H]1NC(=O)[C@@H](CCCNC(=N)N)NC(=O)[C@H](Cc2c[nH]c3ccccc23)NC(=O)[C@@H](Cc2c[nH]c3ccccc23)NC(=O)[C@H](Cc2c[nH]c3ccccc23)NC(=O)[C@@H](Cc2c[nH]c3ccccc23)NC(=O)[C@H](CCCNC(=N)N)NC(=O)[C@@H](CCCNC(=N)N)NC1=O [IFX-034, c[arg-Arg-arg-Arg-trp-Trp-trp-Trp]] (cyclo(R[dR]R[dW]W[dW]W[dR])) | 25 (≈ 18.3 µM) |  | 6.2 (≈ 4.53 µM) | 6.2 (≈ 4.53 µM) | 12.5 (≈ 9.13 µM) | 320
19 | N=C(N)NCCC[C@H](NC(=O)[C@H](CCCNC(=N)N)NC(=O)[C@@H](N)CCCNC(=N)N)C(=O)N[C@H](C(=O)N[C@H](C(=O)N[C@H](C(=O)O)C(c1ccccc1)c1ccccc1)C(c1ccccc1)c1ccccc1)C(c1ccccc1)c1ccccc1 [IFX-002-1, NH2-Arg-Arg-Arg-Dip-Dip-Dip-OH] (H-RRR[Dip][Dip][Dip]-OH) | 25 (≈ 21.6 µM) |  | 3.1 (≈ 2.68 µM) | 3.1 (≈ 2.68 µM) | 6.2 (≈ 5.36 µM) | 265

Reference: patent publication US20220289794A1, “SYNTHETIC ANTIMICROBIAL PEPTIDES” (priority 2019, published 2022)
